The target in experiment [1] is hOX1R (Homo sapiens, UniProt O43613). Description: FLIPR Ca2+ Flux Assay, orexin-1 receptor. The experiment is classed as cell-based. Particulars: CHO cells expressing orexin-1 receptor; agonist 70 pM Ala-6,12 orexin-A.
The target of experiment [2] is human orexin-2 receptor (Homo sapiens (Human), UniProt O43614). Description: FLIPR Ca2+ Flux Assay, orexin-2 receptor. The experiment is classed as cell-based. Conditions: CHO cells expressing the human orexin-2 receptor; agonist 70 pM Ala-6,12 orexin-A; read-out: hOX2R FLIPR IC50. As to the method:
In a typical experiment the OX1 and OX2 receptor antagonistic activity of the compounds of the present invention was determined in accordance with the following experimental method. For intracellular calcium measurements, Chinese hamster ovary (CHO) cells expressing the rat orexin-1 receptor or the human orexin-2 receptor, are grown in Iscove's modified DMEM containing 2 mM L-glutamine, […], 1% hypoxanthine-thymidine supplement, 100 U/ml penicillin, 100 μg/ml streptomycin and 10% heat-inactivated fetal calf serum (FCS). The cells are seeded at 20,000 cells/well into Becton-Dickinson black 384-well clear bottom sterile plates coated with poly-D-lysine. All reagents were from GIBCO-Invitrogen Corp. The seeded plates are incubated overnight at 37° C. and 5% CO2. Ala-6,12 human orexin-A as the agonist is prepared as a 1 mM stock solution in 1% bovine serum albumin (BSA) and diluted in assay buffer (HBSS containing 20 mM HEPES, 0.1% BSA and 2.5 mM probenecid, pH7.4) for use in the assay at a final concentration of 70 pM. Test compounds are prepared as 10 mM stock solution in DMSO, then diluted in 384-well plates, first in DMSO, then assay buffer. On the day of the assay, cells are washed 3 times with 100 μl assay buffer and then incubated for 60 min (37° C., 5% CO2) in 60 μl assay buffer containing 1 μM Fluo-4 AM ester, 0.02% pluronic acid, and 1% BSA. The dye loading solution is then aspirated and cells are washed 3 times with 100 μl assay buffer. 30 μl of that same buffer is left in each well. Within the Fluorescent Imaging Plate Reader (FLIPR, Molecular Devices), test compounds are added to the plate in a volume of 25 μl, incubated for 5 min and finally 25 μl of agonist is added. Fluorescence is measured for each well at 1 second intervals for 5 minutes and the height of each fluorescence peak is compared to the height of the fluorescence peak induced by 70 pM Ala-6,12 orexin-A with buffer in place of antagonist. […] Alternatively, compound potency can be assessed by a radioligand binding assay (described in Bergman et. al. Bioorg. Med. Chem. Lett. 2008, 18, 1425-1430) in which the inhibition constant (Ki) is determined in membranes prepared from CHO cells expressing either the OX1 or OX2 receptor. The intrinsic orexin receptor antagonist activity of a compound which may be used in the present invention may be determined by these assays.
A general note: Calcium assays in cells follow changes in intracellular calcium, usually with a dye or a luminescent sensor.

Bounds are passed on as bounds.

Chain of human orexin-2 receptor (O43614 whole entry): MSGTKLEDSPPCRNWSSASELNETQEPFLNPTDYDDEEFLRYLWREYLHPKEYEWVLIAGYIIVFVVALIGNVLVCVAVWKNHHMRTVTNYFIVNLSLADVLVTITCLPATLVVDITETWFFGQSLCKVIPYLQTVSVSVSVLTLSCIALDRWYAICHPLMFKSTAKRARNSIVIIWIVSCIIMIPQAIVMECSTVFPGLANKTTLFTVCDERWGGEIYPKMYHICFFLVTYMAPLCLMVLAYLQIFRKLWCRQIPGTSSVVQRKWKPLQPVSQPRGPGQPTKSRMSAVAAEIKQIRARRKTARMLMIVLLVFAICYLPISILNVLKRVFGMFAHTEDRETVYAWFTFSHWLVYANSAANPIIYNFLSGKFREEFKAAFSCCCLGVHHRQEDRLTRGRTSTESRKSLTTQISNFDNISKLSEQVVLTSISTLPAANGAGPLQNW

On to `CCN(CCc1ccc(C(C)(C)O)cn1)C(=O)c1ccccc1CC(F)(F)F` [Example 54, N-ethyl-N-{2-[5-(1-hydroxy-1-methylethyl)pyridin-2-yl]ethyl}-2-(2,2,2-trifluoroethyl)benzamide], for which the IC50 (in general, the concentration that inhibits the measured activity by half) in experiment [1] was greater than 10000 nM; in experiment [2], 440 nM.

As for `CCN(CCc1ccc(C(C)(C)O)cn1)C(=O)c1ccccc1N1CCCC1` [Example 51, N-ethyl-N-{2-[5-(1-hydroxy-1-methylethyl)pyridin-2-yl]ethyl}-2-pyrrolidin-1-ylbenzamide], the values for the IC50 in experiment [1] and in experiment [2] were greater than 10000 nM and 76 nM, respectively.

Consider `CCN(CCc1cccc(C(C)(C)O)n1)C(=O)c1ccccc1C1CC1(F)F` (stereo not drawn) [Example 31, 2-(2,2-difluorocyclopropyl)-N-ethyl-N-(2-(6-(2-hydroxypropan-2-yl)pyridin-2-yl)ethyl)benzamide], for which the results for the IC50 in experiment [1] and in experiment [2] were 9040 nM and 14 nM, respectively.

As to `CCN(CCc1cccc(C(C)(C)O)n1)C(=O)c1ccccc1OCC(F)F` [Example 20, 2-(2,2-difluoroethoxy)-N-ethyl-N-(2-(6-(2-hydroxypropan-2-yl)pyridin-2-yl)ethyl)benzamide], the IC50 in experiment [1] is greater than 10000 nM; in experiment [2] it was 136 nM.

`CCN(CCc1ccc(C(C)(C)O)cn1)C(=O)c1ccc(OC)nc1C1CC1` [Example 59, 2-cyclopropyl-N-ethyl-N-{2-[5-(1-hydroxy-1-methylethyl)pyridin-2-yl]ethyl}-6-methoxypyridine-3-carboxamide]: the values for the IC50 in experiment [1] and in experiment [2] were greater than 10000 nM and 55 nM, respectively.

On to `CCCc1ccccc1C(=O)N(CC)CCc1cccc(C(C)(C)O)n1` [Example 16, N-ethyl-N-(2-(6-(2-hydroxypropan-2-yl)pyridin-2-yl)ethyl)-2-propylbenzamide], for which the IC50 in experiment [1] was greater than 10000 nM; in experiment [2], 104 nM.

Regarding `CCN(CCc1ccc(C(C)(C)O)cn1)C(=O)c1cccnc1-c1ccccc1` [Example 58, N-ethyl-N-{2-[5-(1-hydroxy-1-methylethyl)pyridin-2-yl]ethyl}-2-phenylpyridine-3-carboxamide], the IC50 was greater than 10000 nM in experiment [1] and 334 nM in experiment [2].

As to `CCOc1ncccc1C(=O)N(CC)CCc1cccc(C(C)(C)O)n1` [Example 6, 2-ethoxy-N-ethyl-N-{2-[6-(1-hydroxy-1-methylethyl)pyridin-2-yl]ethyl}pyridine-3-carboxamide], the IC50 is greater than 10000 nM in experiment [1] and 206 nM in experiment [2].

With `CCN(CCc1cccc(C(C)(C)O)n1)C(=O)c1cccnc1OCC(F)(F)F` [Example 10, N-ethyl-N-{2-[6-(1-hydroxy-1-methylethyl)pyridin-2-yl]ethyl}-2-(2,2,2-trifluoroethoxy)pyridine-3-carboxamide], the results for the IC50 in experiment [1] and in experiment [2] were greater than 10000 nM and 69 nM, respectively.

For `CCN(CCc1cccc(C(C)(C)O)n1)C(=O)c1ccc(F)cc1-n1nccn1` [Example 13, N-ethyl-4-fluoro-N-{2-[6-(1-hydroxy-1-methylethyl)pyridin-2-yl]ethyl}-2-(2H-1,2,3-triazol-2-yl)benzamide], the IC50 in experiment [1] was greater than 10000 nM; in experiment [2], 8 nM.

As for `CCN(CCc1nccc(C(C)(C)O)n1)C(=O)c1ccccc1-n1nccn1` [Example 44, N-Ethyl-N-(2-(4-(2-hydroxypropan-2-yl)pyrimidin-2-yl)ethyl)-2-(2H-1,2,3-triazol-2-yl)benzamide], the IC50 in experiment [1] was greater than 10000 nM; in experiment [2] it was 58 nM.

As for `CCOc1ccccc1C(=O)N(CC)CCc1ccc(C(C)(C)O)cn1` [Example 57, 2-ethoxy-N-ethyl-N-{2-[5-(1-hydroxy-1-methylethyl)pyridin-2-yl]ethyl}benzamide], the IC50 was greater than 10000 nM in experiment [1] and 547 nM in experiment [2].

In the case of `CCN(CCc1cccc(C(C)(C)O)n1)C(=O)c1ccccc1OCC(F)(F)F` [Example 17, N-ethyl-N-(2-(6-(2-hydroxypropan-2-yl)pyridin-2-yl)ethyl)-2-(2,2,2-trifluoroethoxy)benzamide], the IC50 is greater than 10000 nM in experiment [1] and 261 nM in experiment [2].

Consider `CCN(CCc1ccc(C)c(C(C)(C)O)n1)C(=O)c1ccccc1-n1nccn1` [Example 48, N-Ethyl-N-(2-(6-(2-hydroxypropan-2-yl)-5-methylpyridin-2-yl)ethyl)-2-(2H-1,2,3-triazol-2-yl)benzamide], for which the IC50 in experiment [1] was 791 nM; in experiment [2], 6 nM.

As for `CCN(CCc1ccc(C(C)(C)O)cn1)C(=O)c1ccccc1-n1cccn1` [Example 53, N-ethyl-N-{2-[5-(1-hydroxy-1-methylethyl)pyridin-2-yl]ethyl}-2-(1H-pyrazol-1-yl)benzamide], the IC50 in experiment [1] is greater than 10000 nM; in experiment [2] it was 183 nM.

Regarding `CCN(CCc1cccc(C(C)(C)O)n1)C(=O)c1cccnc1OCC(F)F` [Example 9, 2-(2,2-difluoroethoxy)-N-ethyl-N-{2-[6-(1-hydroxy-1-methylethyl)pyridin-2-yl]ethyl}pyridine-3-carboxamide], the results for the IC50 in experiment [1] and in experiment [2] were greater than 10000 nM and 95 nM, respectively.

Turning to `CCN(CCc1cnc(C(C)(C)O)cn1)C(=O)c1ccccc1-n1nccn1` [Example 46, N-Ethyl-N-(2-(5-(2-hydroxypropan-2-yl)pyrazin-2-yl)ethyl)-2-(2H-H-1,2,3-triazol-2-yl)benzamide], the IC50 in experiment [1] was greater than 10000 nM; in experiment [2], 170 nM.

Consider `CCN(CCc1cccc(C(C)(C)O)n1)C(=O)c1ccccc1-n1cccn1` [Example 12, N-ethyl-N-{2-[6-(1-hydroxy-1-methylethyl)pyridin-2-yl]ethyl}-2-(1H-pyrazol-1-yl)benzamide], for which the IC50 is greater than 10000 nM in experiment [1] and 66 nM in experiment [2].

Consider `CCN(CCc1cc(C(C)(C)O)ccn1)C(=O)c1ccccc1-n1nccn1` [Example 1, N-Ethyl-N-{2-[4-(1-hydroxy-1-methylethyl)pyridin-2-yl]ethyl}-2-(2H-1,2,3-triazol-2-yl)benzamide], for which the IC50 in experiment [1] is greater than 10000 nM; in experiment [2], 69 nM.

`CCN(CCc1cccc(C(C)(C)O)n1)C(=O)c1cccnc1-n1cccn1` [Example 24, N-ethyl-N-(2-(6-(2-hydroxypropan-2-yl)pyridin-2-yl)ethyl)-2-(1H-pyrazol-1-yl)nicotinamide]: the figures for the half-maximal inhibitory concentration (IC50) in experiment [1] and in experiment [2] were greater than 10000 nM and 36 nM, respectively.

Consider `CCN(CCc1ccc(C(C)(C)O)cn1)C(=O)c1cccnc1OCC(F)(F)F` [Example 56, N-ethyl-N-{2-[5-(1-hydroxy-1-methylethyl)pyridin-2-yl]ethyl}-2-(2,2,2-trifluoroethoxy)pyridine-3-carboxamide], for which the IC50 in experiment [1] was greater than 10000 nM; in experiment [2] it was 430 nM.

Regarding `CCN(CCc1cncc(C(C)(C)O)n1)C(=O)c1ccccc1-n1nccn1` [Example 39, N-Ethyl-N-{2-[6-(1-hydroxy-1-methylethyl)pyrazin-2-yl]ethyl}-2-(2H-1,2,3-triazol-2-yl)benzamide], the IC50 was greater than 10000 nM in experiment [1] and 68 nM in experiment [2].

On to `CCN(CCc1cccc(C(C)(C)O)n1)C(=O)c1ccccc1-c1ncccn1` [Example 32, N-Ethyl-N-(2-(6-(2-hydroxypropan-2-yl)pyridin-2-yl)ethyl)-2-(pyrimidin-2-yl)benzamide], for which the IC50 in experiment [1] came to 7360 nM; in experiment [2], 16 nM.

Take `CCN(CCc1cccc(C(C)(C)O)n1)C(=O)c1ncccc1-c1ccccc1` [Example 26, N-ethyl-N-(2-(6-(2-hydroxypropan-2-yl)pyridin-2-yl)ethyl)-3-phenylpicolinamide]: the figures for the IC50 in experiment [1] and in experiment [2] were greater than 10000 nM and 452 nM, respectively.

In the case of `CCOc1ccccc1C(=O)N(CC)CCc1cccc(C(C)(C)O)n1` [Example 11, 2-ethoxy-N-ethyl-N-{2-[6-(1-hydroxy-1-methylethyl)pyridin-2-yl]ethyl}benzamide], the IC50 was greater than 10000 nM in experiment [1] and 76 nM in experiment [2].

`CCN(CCc1cccc(C(C)(C)O)n1)C(=O)c1ccccc1N1CCCC1` [Example 28, N-ethyl-N-(2-(6-(2-hydroxypropan-2-yl)pyridin-2-yl)ethyl)-2-(pyrrolidin-1-yl)benzamide]: the IC50 in experiment [1] was greater than 10000 nM; in experiment [2] it was 88 nM.

Regarding `CCN(CCc1ccnc(C(C)(C)O)n1)C(=O)c1ccccc1-n1nccn1` [Example 40, N-Ethyl-N-(2-(2-(2-hydroxypropan-2-yl)pyrimidin-4-yl)ethyl)-2-(2H-1,2,3-triazol-2-yl)benzamide], the IC50 is greater than 10000 nM in experiment [1] and 74 nM in experiment [2].

The values above are taken from patent US10239838B2, “Heteroaryl orexin receptor antagonists” (Merck Sharp & Dohme Corp., priority 2014, dated 2019).
